In US11447479B2, “Compounds active towards nuclear receptors” (NUEVOLUTION A/S, priority 2019, dated 2022):

Biological target: T1, RORγ (Homo sapiens, UniProt P51449)
T1 construct: Gal4 (galactose-responsive transcription factor); expressed in transfected cells; host or cells: HEK293
T1 sequence (P51449 269-508 limits assumed): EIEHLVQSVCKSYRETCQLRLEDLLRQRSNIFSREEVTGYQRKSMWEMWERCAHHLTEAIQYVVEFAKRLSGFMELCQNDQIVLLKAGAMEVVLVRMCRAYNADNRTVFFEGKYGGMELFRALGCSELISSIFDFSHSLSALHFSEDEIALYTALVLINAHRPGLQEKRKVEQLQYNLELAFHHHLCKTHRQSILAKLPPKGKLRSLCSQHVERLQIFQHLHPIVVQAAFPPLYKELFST
Assay: RORγ Reporter Assay (Gal4)
Type: cell-based
Conditions: HEK293 co-transfected with RORγ LBD-Gal4 and luciferase reporter, 24 h incubation, absolute IC50; read-out: IC50
Procedure: RORγ Reporter Assay (Gal4)
The HEK293 cell line is co-transfected transiently with two plasmids, one with the RORγ ligand-binding domain fused to galactose-responsive transcription factor (Gal4), and the other with the luciferase reporter gene and Gal binding sites (UAS). This construction allows to determine the RORγ activity in a cellular system through the measurement of luminescence.
A suspension of RORγ reporter cells was dispensed into plates and cultured 2 h at 37° C. and 5% CO2. Media formulation consisted in DMEM/F-12 medium (Gibco) supplemented with 10% heat inactivated FBS (Sigma-Aldrich), non-essential aminoacids (Sigma-Aldrich), 2 mM Glutamax (Gibco) and 100 U/mF penicillin (Sigma-Aldrich). Dose-response curves with compounds were prepared in 100% DMSO and further diluted […] in culture medium. Compound solutions were added to the plate containing cells (final DMSO concentration of 0.1%) and incubated for 24 h at 37° C. and 5% CO2. Luciferase detection reagent was added to each well, and relative light units […] were quantified from each assay well using a plate reading luminometer.
Values of average RFU±S.D. were computed for all treatment sets, followed by the calculations of percent-reduction of RORγ activity in response to respective test compound. The following formula was used: activity=100*[1−[x test compound/average vehicle]where the theoretical minimum reduction (0% reduction).

| SMILES | IC50 [nM] |
| --- | --- |
| NC(=O)CN1CCC(CNc2ncnc(N3CCOC[C@@H]3c3ccc(C(F)(F)F)cc3)c2F)CC1 [Example H6-5, (S)-2-(4-(((5-fluoro-6-(3-(4-(trifluoromethyl)phenyl)morpholino)pyrimidin-4-yl)amino)methyl)piperidin-1-yl)acetamide] | 70 |
| C[C@@H]1COC[C@H](c2ccc(C(F)(F)F)cc2)N1c1ncnc(NC[C@@H]2CCN(CC(N)=O)C[C@H]2O)c1F (single isomer, unassigned) [Example H6-22-2] | 60 |
| NC(=O)CN1CCC(F)(CNc2ncnc(N3CCOC[C@@H]3c3ccc(C(F)(F)F)cc3)c2F)CC1 [Example H6-4, (S)-2-(4-fluoro-4-(((5-fluoro-6-(3-(4-(trifluoromethyl)phenyl)morpholino)pyrimidin-4-yl)amino)methyl)piperidin-1-yl)acetamide] | 56 |
| NC(=O)CN1CCC(CNc2ncnc(N3CC(F)(F)C[C@@H]3c3ccc(C(F)(F)F)cc3)c2F)C(F)(F)C1 (single isomer, unassigned) [Example H6-15-2, 2-((R*)-4-(((6-((R)-4,4-difluoro-2-(4-(trifluoromethyl)phenyl)pyrrolidin-1-yl)-5-fluoropyrimidin-4-yl)amino)methyl)-3,3-difluoropiperidin-1-yl)acetamide] | 25 |
| NC(=O)CN1CCC(CNc2ncnc(N3CCCC3c3ccc(C(F)(F)F)cc3)c2F)CC1 (stereo not drawn) [Example H6-25, 2-(4-(((5-fluoro-6-(2-(4-(trifluoromethyl)phenyl)pyrrolidin-1-yl)pyrimidin-4-yl)amino)methyl)piperidin-1-yl)acetamide] | 88 |
| NC(=O)CN1CCC(CNc2ncnc(N3CCOC[C@@H]3c3ccc(OC(F)(F)F)cc3)c2F)CC1 [Example H6-23, (S)-2-(4-(((5-fluoro-6-(3-(4-(trifluoromethoxy)phenyl)morpholino)pyrimidin-4-yl)amino)methyl)piperidin-1-yl)acetamide] | 190 |
| NC(=O)CN1CC[C@H](CNc2ncnc(N3CCOC[C@@H]3c3ccc(C(F)(F)F)cc3)c2F)[C@@H](O)C1 (single isomer, unassigned) [Example H6-7-1, 2-((3R*,4R*)-4-(((5-fluoro-6-((S)-3-(4-(trifluoromethyl)phenyl)morpholino)pyrimidin-4-yl)amino)methyl)-3-hydroxypiperidin-1-yl)acetamide] | 20 |
| NC(=O)CN1CCC(CNc2ncnc(N3CCCC3c3ccc(C(F)(F)F)cc3O)c2F)CC1 (stereo not drawn) [Example H6-26, 2-(4-(((5-fluoro-6-(2-(2-hydroxy-4-(trifluoromethyl)phenyl)pyrrolidin-1-yl)pyrimidin-4-yl)amino)methyl)piperidin-1-yl)acetamide] | 440 |
| NC(=O)CN1CCC(F)(CNc2ncnc(N3CCOC[C@@H]3c3ccc(OC(F)(F)F)cc3)c2F)CC1 [Example H6-6, (S)-2-(4-fluoro-4-(((5-fluoro-6-(3-(4-(trifluoromethoxy)phenyl)morpholino)pyrimidin-4-yl)amino)methyl)piperidin-1-yl)acetamide] | 51 |
| NC(=O)CN1CCC(O)(CNc2ncnc(N3CC(F)(F)C[C@@H]3c3ccc(C(F)(F)F)cc3)c2F)CC1 [Example H6-14, (R)-2-(4-(((6-(4,4-difluoro-2-(4-(trifluoromethyl)phenyl)pyrrolidin-1-yl)-5-fluoropyrimidin-4-yl)amino)methyl)-4-hydroxypiperidin-1-yl)acetamide] | 230 |

The next lines start with the values.

| IC50 [nM] | SMILES |
| --- | --- |
| 14 | NC(=O)CN1CC[C@H](CNc2ncnc(N3CC(F)(F)C[C@@H]3c3ccc(C(F)(F)F)cc3)c2F)[C@@H](F)C1 (single isomer, unassigned) [Example H6-16-1, 2-((3R*,4R*)-4-(((6-((R)-4,4-difluoro-2-(4-(trifluoromethyl)phenyl)pyrrolidin-1-yl)-5-fluoropyrimidin-4-yl)amino)methyl)-3-fluoropiperidin-1-yl)acetamide] |
| 31 | NC(=O)CN1CC[C@H](CNc2ncnc(N3CC(F)(F)C[C@@H]3c3ccc(C(F)(F)F)cc3)c2F)[C@@H](O)C1 (single isomer, unassigned) [Example H6-17-2, 2-((3R*,4R*)-4-(((6-((R)-4,4-difluoro-2-(4-(trifluoromethyl)phenyl)pyrrolidin-1-yl)-5-fluoropyrimidin-4-yl)amino)methyl)-3-hydroxypiperidin-1-yl)acetamide] |
| 46 | NC(=O)CN1CCC(CNc2ncnc(N3CC(F)(F)C[C@@H]3c3ccc(C(F)(F)F)cn3)c2F)C(F)(F)C1 (single isomer, unassigned) [Example H6-19-2, 2-((R*)-4-(((6-((R)-4,4-difluoro-2-(5-(trifluoromethyl)pyridin-2-yl)pyrrolidin-1-yl)-5-fluoropyrimidin-4-yl)amino)methyl)-3,3-difluoropiperidin-1-yl)acetamide] |
| 488 | NC(=O)CN1CC[C@H](CNc2ncnc(N3CC(F)(F)C[C@@H]3c3ccc(C(F)(F)F)cn3)c2F)[C@@H](O)C1 (mixture of isomers) [Example H6-20, 2-((3RS,4RS)-4-(((6-((R)-4,4-difluoro-2-(5-(trifluoromethyl)pyridin-2-yl)pyrrolidin-1-yl)-5-fluoropyrimidin-4-yl)amino)methyl)-3-hydroxypiperidin-1-yl)acetamide] |
| 140 | NC(=O)CN1CC[C@H](CNc2ncnc(N3CC(F)(F)C[C@@H]3c3ccc(C(F)(F)F)cn3)c2F)[C@@H](F)C1 (single isomer, unassigned) [Example H6-18-1, 2-((3R*,4R*)-4-(((6-((R)-4,4-difluoro-2-(5-(trifluoromethyl)pyridin-2-yl)pyrrolidin-1-yl)-5-fluoropyrimidin-4-yl)amino)methyl)-3-fluoropiperidin-1-yl)acetamide] |
| 10 | NC(=O)CN1CC[C@H](CNc2ncnc(N3CC(F)(F)C[C@@H]3c3ccc(C(F)(F)F)cc3)c2F)[C@@H](O)C1 (mixture of isomers) [Example H6-17, 2-((3RS,4RS)-4-(((6-((R)-4,4-difluoro-2-(4-(trifluoromethyl)phenyl)pyrrolidin-1-yl)-5-fluoropyrimidin-4-yl)amino)methyl)-3-hydroxypiperidin-1-yl)acetamide] |

Same assay, conditions: comparison compounds from WO2016020295, Tables 5 and 6; read-out: Gal4 assay IC50

| SMILES | IC50 [nM] |
| --- | --- |
| NC(=O)Cc1ccc(CNc2ncnc(N3CCOC[C@@H]3c3ccc(C(F)(F)F)cc3)c2F)cc1 [Example 204, reference compound] | < 500 |

Test system: Th17 cells
Assay: Th17 assay (IL-17 in supernatants of differentiating human naive CD4+ T cells, ELISA)
Type: cell-based
Conditions: 168 h, Th17 differentiation for seven days with test compound, IL-17 levels in supernatants by ELISA
Procedure: Th17 Assay (Another Suitable Assay)
The following modifications were made to the manufacturer's protocol: 1) Incubation with Biotin-Antibody Cocktail and Anti-Biotin MicroBeads was prolonged to 30 minutes, and 2) Cells were washed with 40 mL of Miltenyi buffer. Differentiation of Th17 cells in anti-CD3 (BD Pharmingen, 5 μg/ml) coated 96-well plates (400,000 cells/well, 160 μl RPMI1640+10% Fetal Bovine Serum) containing 5 μg/ml anti-CD28 (BD Pharmingen), 10 ng/ml IL-2 (R&D Systems), 2.5 ng/ml TGFβ-1 (R&D Systems), 20 ng/ml IL-1β (R&D Systems), 20 ng/ml IL-6 (R&D Systems), 30 ng/ml IL-23 (R&D Systems), 2.5 μg/ml anti-IL-4 (R&D Systems) and 1 μg/ml anti-IFNγ (R&D Systems) and with test compound during the entire differentiation (or vehicle, 0.1% DMSO for control). Test compounds were tested in triplicates, diluted 1000-fold in medium (final DMSO concentration is 0.1%). Incubated for seven days at 37° C., 5% CO2, 95% humidity, and 2-fluoro-4′-[[4-(4-pyridinylmethyl)-1-piperazinyl]methyl]-α,α-bis(trifluoromethyl)-[1,1′-biphenyl]-4-methanol (SR2211 Calbiochem, Cat. No. 557353) was used as positive control. As negative control, cells were differentiated into Th0 using 5 μg/ml anti-CD28 (BD Pharmingen), 10 ng/ml IL-2 (R&D Systems), 2 μg/ml anti-IL4 (R&D Systems) and 2 μg/ml anti-IFNγ (R&D Systems) are negative control. IL-17 levels in supernatants were measured with ELISA (R&D Systems).

| SMILES | IC50 [nM] |
| --- | --- |
| NC(=O)CN1CCC(CNc2ncnc(N3CCOC[C@@H]3c3ccc(C(F)(F)F)cc3)c2F)CC1 [Example H6-5, (S)-2-(4-(((5-fluoro-6-(3-(4-(trifluoromethyl)phenyl)morpholino)pyrimidin-4-yl)amino)methyl)piperidin-1-yl)acetamide] | 161 |
